These results are taken from article PMC6463794, “Inhibition of CDC25B With WG-391D Impedes the Tumorigenesis of Ovarian Cancer” (Frontiers in Oncology, 2019).

In the test the target is T1, CDC25B (Homo sapiens, UniProt P30305).
T1 construct: recombinant CDC25B protein
T1 sequence (P30305 1-580): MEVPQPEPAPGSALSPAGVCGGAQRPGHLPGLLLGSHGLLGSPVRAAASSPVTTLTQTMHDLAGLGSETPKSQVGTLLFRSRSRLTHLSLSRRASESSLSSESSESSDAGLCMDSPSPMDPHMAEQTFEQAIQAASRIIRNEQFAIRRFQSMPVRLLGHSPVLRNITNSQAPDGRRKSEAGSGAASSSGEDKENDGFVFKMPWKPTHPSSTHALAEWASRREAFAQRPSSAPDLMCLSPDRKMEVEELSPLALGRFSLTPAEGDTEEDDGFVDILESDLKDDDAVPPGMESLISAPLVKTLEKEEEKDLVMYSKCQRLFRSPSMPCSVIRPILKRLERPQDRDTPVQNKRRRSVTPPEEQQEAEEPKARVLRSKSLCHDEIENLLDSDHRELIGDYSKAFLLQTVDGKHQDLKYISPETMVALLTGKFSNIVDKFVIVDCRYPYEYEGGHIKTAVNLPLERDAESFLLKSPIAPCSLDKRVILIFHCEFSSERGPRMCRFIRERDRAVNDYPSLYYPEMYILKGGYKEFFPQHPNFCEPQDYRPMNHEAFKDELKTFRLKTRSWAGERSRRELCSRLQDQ
Briefly: fluorometric phosphatase assay (3-O-methylfluorescein phosphate) with recombinant CDC25B; positive-control inhibitor, single concentration. The format is biochemical. Here is the method:
fluorometric phosphatase assay (3-O-methylfluorescein phosphate) with recombinant CDC25B; positive-control inhibitor, single concentration on CDC25B | CDC25B dephosphorylation catalytic activity was determined by in vitro enzyme assay. ... PC, NSC663284 served as the positive control.

Turning to `O=C1C(Cl)=C(NCCN2CCOCC2)C(=O)c2ncccc21` [PC, NSC663284], the “fluorometric phosphatase assay (3-O-methylfluorescein phosphate) with recombinan” value is reported as “CDC25B dephosphorylation catalytic activity was determined by in vitro enzyme assay. ... PC, NSC663284 served as the positive control”.
